{"source": "paper PMC9822133", "about": "“Design, Synthesis and Antiproliferative Evaluation of Bis-Indole Derivatives with a Phenyl Linker: Focus on Autophagy” (Molecules, 2022)", "key": {"A549 cells": {"test_system": "A549 cells", "experiment": "Annexin V/PI staining", "assay_type": "cell-based, human", "experimental": "Phosphatidylserine (PS), normally localized in the inner leaflet of the cell membrane, is translocated on the outer surface during induction of apoptosis. Annexin V/PI double staining was performed to analyze the externalization of PS on the outer plasmatic membrane surface together with cell population diversification (An^−/PI^−—living cells; An^+/PI^- early apoptotic cells; An^+/PI^+—late apoptotic/necrotic cells, and An^−/PI^+—dead cells). […] The A549 lung human alveolar adenocarcinoma cells were seeded at a density of 2 × 10^5/dish. After 24 h incubation, the cells were treated with indole phytoalexin 49 at 20 µM concentration alone or after 1 h pre-treatment with chloroquine (20 µM), and the control group with DMSO (v/v 0.02%). The whole population of treated cells (adherent and floating) was harvested at three different times (24, 48 and 72 h), washed with PBS and stained with Annexin V-Alexa Fluor® 647 antibody (Thermo Scientific, Rockford, IL, USA) in binding buffer for 20 min in the dark at RT. After the wash step, samples were stained with 1 μL of propidium iodide (final concentration 25 μg/mL) for 5 min and analyzed using a BD FACSCalibur^TM Flow Cytometer (Becton Dickinson, San Jose, CA, USA). Three independent analyses were performed."}, "MDA-MB-231": {"test_system": "MDA-MB-231", "experiment": "MTT screening assay, MDA-MB-231", "assay_type": "cell-based", "details": "Homo sapiens, 72 h incubation", "excerpt": "(§1) The ability of newly synthesized indole phytoalexins to suppress cell proliferation was screened in vitro on eight cancer cell lines including human colorectal carcinoma (Caco-2 and HCT116), human cervical cancer (HeLa), human breast adenocarcinoma (MCF-7, MDA-MB-231), human alveolar adenocarcinoma (A549) and human leukemic T cell lymphoma (Jurkat), and two non-cancer cell lines (MCF-10A, Cos-7).\n(§2) The cell lines used for this study were Caco-2 (human colorectal adenocarcinoma cell line, American Type Culture Collection, Manassas, VA, USA (ATCC)), HCT116 (human colorectal carcinoma cells European Collection of Authenticated Cell Cultures, Salisbury, UK (ECACC)), HeLa (human cervical tumor cells, ECACC), MCF-7 (human breast tumor cells, ECACC), MDA-MB-231 (human breast tumor cells, ATCC), A549 (human lung carcinoma cells, ATCC), BLM (human melanoma lung metastases, a gift from prof. K. Smetana, Institute of Anatomy, Charles University in Prague), Jurkat (human leukemia cell line, ECACC), Cos-7 (immortalized monkey kidney fibroblasts, ATCC) and MCF-10A (human mammary epithelial cells, ATCC). Caco-2, MCF-7, BLM, Cos-7 and A549 cells were cultured in Dulbecco’s Modified Eagle’s Medium (DMEM) with high glucose and sodium pyruvate (GE Healthcare, Piscataway, NJ, USA); HCT116 lines, HeLa, MDA-MB-231 and Jurkat were cultured in RPMI-1640 medium; and MCF10A cells were cultured in high glucose DMEM/F12 (Dulbecco’s Modified Eagle’s Medium F12). The media were enriched with 10% fetal bovine serum (FBS) and a 1% solution of a mixture of antibiotics and antimycotics 1× HyClone™ (GE Healthcare, Chicago, IL, USA). DMEM/F12 medium was supplemented with epidermal growth factor (EGF) (20 ng/mL final), hydrocortisone (0.5 μg/mL final) and insulin (10 μg/mL final) (Sigma-Aldrich Chemie, Steinheim, Germany). The cells were placed in an incubator at 37 °C with humidified air containing 5% CO2.\n(§3) The MTT assay is a colorimetric method used to quantify the metabolic activity of cells. MTT (3-(4,5-di-methylthiazol-2-yl)2,5-diphenyltetrazolium bromide) (Sigma-Aldrich Chemie, Steinheim, Germany) is reduced by oxidoreductases in the cytosol of cells to light-absorbing formazan, the presence of which can be measured spectrophotometrically and determines the half-maximal inhibitory concentration (IC50). A549 cells were seeded in […] culture plates at a density of 5 × 10^3 per well. […]\n(§4) We also incubated the cells with chloroquine at concentrations of 5–20 µM, which was added 1 h before the addition of the test substance, and cisplatin at concentrations of 3–10 µM. […] After 24 h, the absorbance was measured at a wavelength of 540 nm using an automated Cytation™ 3 Cell Imaging Multi-Mode Reader (Biotek, Winooski, VT, USA). […]"}, "A549": {"test_system": "A549", "experiment": "MTT screening assay, A549", "assay_type": "cell-based", "details": "Homo sapiens, 72 h incubation", "excerpt": "as §1, §2, §3, §4"}, "Jurkat": {"test_system": "Jurkat", "experiment": "MTT screening assay, Jurkat", "assay_type": "cell-based", "details": "Homo sapiens, 72 h incubation", "excerpt": "as §1, §2, §3, §4"}}, "data": [{"smiles": "CC(C)(C)OC(=O)n1cc(CNC(=O)Nc2ccc(NC(=O)NCc3cn(C(=O)OC(C)(C)C)c4ccccc34)cc2)c2ccccc21", "note": "[Compound 49, N,N′-(1,4-phenylene)bis{N′-[1-(tert-butoxycarbonyl)indol-3-yl]methyl (urea)}]", "values": [{"measurement": "total PS externalization (Annexin V/PI)", "setting": "A549 cells; A549, 20 µM, 24, 48 and 72 h, vs DMSO-treated control", "value": "did not induce"}, {"measurement": "number of cells in late apoptosis, combination with CQ", "setting": "A549 cells; A549, 49 20 µM + CQ 20 µM, all time points, vs DMSO, CQ or 49 alone", "value": "significantly increased"}, {"measurement": "IC50", "setting": "MDA-MB-231", "value": "> 100", "unit": "µM"}, {"measurement": "IC50", "setting": "A549", "value": "8.7 ± 0.1", "unit": "µM"}, {"measurement": "IC50", "setting": "Jurkat", "value": "98.8 ± 1.7", "unit": "µM"}]}]}
